The text below walks through data of patent US7135466B2 (Kirin Beer Kabushiki Kaisha, priority 1999, dated 2006).

A value given as a limit tells only on which side of the number the result lay.

The target in one experiment is T1, c-kit (Homo sapiens, UniProt P10721).
T1 construct: MO7e (human megakaryocytic leukemia cell line) which had been arrested for 20 hr; endogenous in cells; host or cells: MO7e human megakaryocytic leukemia cell line
Nature of the experiment: Inhibitory activity against c-kit autophosphorylation (MO7e cells, h-SCF). The experiment is classed as cell-based. Particulars: for IC50: MO7e cells, 50 ng/ml h-SCF, read-out: c-kit IC50; for inhibition at 1 µM: Mo7e, figure within parentheses in −( ) or >1000( ), at 1000 nM. The method in brief: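 In this cellular autophosphorylation assay, compound-treated MO7e cells (1 hr) were challenged with human stem cell factor at 50 ng/ml for 5 min; detection relied on PY-20 capture and anti-c-kit/HRP immunodetection at 450 nm.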

A further experiment addresses T2, PDGF-Ra (Homo sapiens, UniProt P16234).
T2 construct: host or cells: G-292 human osteosarcoma cells
Nature of the experiment: Inhibitory activity against PDGF-Ra phosphorylation by PDGF-AA stimulation using G292. The experiment is classed as cell-based. As to conditions: for IC50: > means inhibition at indicated concentration not more than 50%, < and << not less than 50%, read-out: PDGF (E) IC50; for inhibition at 0.1 µM: G292, read-out: PDGF (E) inhibition (%) at 100 nM. The procedure, abridged: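 In G-292 osteosarcoma cells kept overnight in 0.1% FBS, compound exposure (1 hr, 37 °C) preceded PDGF-AA stimulation at 50 ng/ml for 5 min; receptor phosphotyrosine was then detected by PY-20 capture ELISA.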

Setting [1] is: figure within parentheses in >100( ), at 100 nM.

T2 sequence (P16234 24-1089): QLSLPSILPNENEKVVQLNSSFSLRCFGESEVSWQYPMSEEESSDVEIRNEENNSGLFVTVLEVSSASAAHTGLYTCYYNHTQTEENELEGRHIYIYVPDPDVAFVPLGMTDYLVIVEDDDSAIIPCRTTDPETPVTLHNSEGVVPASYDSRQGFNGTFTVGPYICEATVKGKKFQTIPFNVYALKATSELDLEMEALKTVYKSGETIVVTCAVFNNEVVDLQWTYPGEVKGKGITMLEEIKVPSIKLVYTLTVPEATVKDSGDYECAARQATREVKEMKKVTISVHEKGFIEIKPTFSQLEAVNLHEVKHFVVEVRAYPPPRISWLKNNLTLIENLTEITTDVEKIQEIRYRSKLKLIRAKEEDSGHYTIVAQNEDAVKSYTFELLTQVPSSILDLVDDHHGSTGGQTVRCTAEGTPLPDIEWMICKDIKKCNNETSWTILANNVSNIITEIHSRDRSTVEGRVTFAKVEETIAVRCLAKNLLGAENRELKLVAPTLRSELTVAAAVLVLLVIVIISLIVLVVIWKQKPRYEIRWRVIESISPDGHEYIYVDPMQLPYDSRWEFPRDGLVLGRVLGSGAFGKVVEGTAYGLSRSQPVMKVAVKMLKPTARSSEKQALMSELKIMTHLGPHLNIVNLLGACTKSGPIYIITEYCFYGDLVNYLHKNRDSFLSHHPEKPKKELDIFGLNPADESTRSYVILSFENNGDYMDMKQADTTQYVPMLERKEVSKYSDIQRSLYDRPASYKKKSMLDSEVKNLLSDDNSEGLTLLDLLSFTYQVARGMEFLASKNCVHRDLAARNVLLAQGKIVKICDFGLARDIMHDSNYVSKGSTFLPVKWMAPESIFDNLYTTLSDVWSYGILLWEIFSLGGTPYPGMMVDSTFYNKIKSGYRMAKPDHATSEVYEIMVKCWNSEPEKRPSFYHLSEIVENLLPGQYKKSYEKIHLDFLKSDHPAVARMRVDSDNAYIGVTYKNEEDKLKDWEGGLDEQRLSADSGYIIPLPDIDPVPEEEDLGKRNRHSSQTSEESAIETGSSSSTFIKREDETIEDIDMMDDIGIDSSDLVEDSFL
T1 sequence (P10721 26-976): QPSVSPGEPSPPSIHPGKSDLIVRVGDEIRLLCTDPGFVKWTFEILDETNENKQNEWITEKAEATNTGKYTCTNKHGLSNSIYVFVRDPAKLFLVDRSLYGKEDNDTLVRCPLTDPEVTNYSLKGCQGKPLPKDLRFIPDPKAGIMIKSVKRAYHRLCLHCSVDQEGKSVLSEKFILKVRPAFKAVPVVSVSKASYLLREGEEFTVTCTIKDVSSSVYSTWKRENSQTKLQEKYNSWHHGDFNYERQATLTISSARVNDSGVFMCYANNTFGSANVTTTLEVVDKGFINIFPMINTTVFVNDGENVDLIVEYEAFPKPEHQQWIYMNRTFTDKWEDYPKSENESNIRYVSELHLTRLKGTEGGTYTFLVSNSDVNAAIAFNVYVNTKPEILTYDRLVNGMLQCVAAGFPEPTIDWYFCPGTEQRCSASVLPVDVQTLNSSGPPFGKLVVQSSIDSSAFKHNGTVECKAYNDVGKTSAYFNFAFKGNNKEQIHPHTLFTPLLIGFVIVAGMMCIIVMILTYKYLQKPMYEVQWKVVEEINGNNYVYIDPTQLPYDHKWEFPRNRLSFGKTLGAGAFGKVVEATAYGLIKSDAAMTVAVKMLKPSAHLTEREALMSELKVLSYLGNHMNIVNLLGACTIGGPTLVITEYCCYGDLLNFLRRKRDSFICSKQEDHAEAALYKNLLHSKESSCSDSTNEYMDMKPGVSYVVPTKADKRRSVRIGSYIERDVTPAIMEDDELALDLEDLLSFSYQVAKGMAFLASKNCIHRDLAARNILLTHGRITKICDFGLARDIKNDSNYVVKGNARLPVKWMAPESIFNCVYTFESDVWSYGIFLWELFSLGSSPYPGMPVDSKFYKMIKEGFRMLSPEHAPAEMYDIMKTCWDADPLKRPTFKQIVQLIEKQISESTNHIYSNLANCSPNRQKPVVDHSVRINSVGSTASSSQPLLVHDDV

One may read the IC50 as the concentration at which inhibition is half-maximal. Regarding `CCN(CCNC(=S)Nc1ccc(Oc2ccnc3cc(OC)c(OC)cc23)c(C)c1C)c1ccccc1C` [Example 544, N-{4-[(6,7-Dimethoxy-4-quinolyl)oxy]-2,3-dimethylphenyl}-N′-{2-[N-ethyl-N-(o-tolyl)amino]-ethyl}thiourea], the IC50 was 216 nM at c-kit and below 10 nM at PDGF-Ra.

Turning to `COc1cc2nccc(Oc3cc(C)c(NC(=S)NCCN4CCOCC4)cc3C)c2cc1OC` [Example 545, N-{4-[(6,7-Dimethoxy-4-quinolyl)oxy]-2,5-dimethylphenyl}-N′-[2-(1-morpholino)ethyl]thiourea], the values for the IC50 on c-kit and on PDGF-Ra were 254 nM and 70 nM, respectively.

In general, inhibition refers to the relative decrease from the control value, in per cent. Turning to `CCN(CC)CCCNC(=S)Nc1ccc(Oc2ccnc3cc(OC)c(OC)cc23)c(C)c1C` [Example 546, N-{4-[(6,7-Dimethoxy-4-quinolyl)oxy]-2,3-dimethylphenyl}-N′-(3-diethylaminopropyl)thiourea], the inhibition at 1 µM at c-kit stood at 44%. Besides, the IC50 on PDGF-Ra is 54 nM.

Take `CCCCN(CCCC)CCCNC(=S)Nc1ccc(Oc2ccnc3cc(OC)c(OC)cc23)c(C)c1C` [Example 547, N-{4-[(6,7-Dimethoxy-4-quinolyl)oxy]-2,3-dimethylphenyl}-N′-(3-dibutylaminopropyl)thiourea]: on c-kit, the inhibition at 1 µM was determined as 41%. In addition, the IC50 at PDGF-Ra is above 100 nM. Also, at PDGF-Ra (setting [1]), the inhibition at 0.1 µM was found to be 33%.

As for `COc1cc2nccc(Oc3ccc(NC(=S)NCCCN4CCOCC4)c(C)c3C)c2cc1OC` [Example 548, N-{4-[(6,7-Dimethoxy-4-quinolyl)oxy]-2,3-dimethylphenyl}-N′-[3-(1-morpholino)propyl]thiourea], the figures for the IC50 at c-kit and on PDGF-Ra were 268 nM and 46 nM, respectively.

Regarding `COc1cc2nccc(Oc3ccc(NC(=S)NCCCN4CCCCC4C)c(C)c3C)c2cc1OC` (stereo not shown) [Example 549, N-{4-[(6,7-Dimethoxy-4-quinolyl)oxy]-2,3-dimethylphenyl}-N′-[3-(2-methylpiperidinyl)propyl]thiourea], the IC50 was determined as 681 nM on c-kit and 62 nM on PDGF-Ra.

With `COc1cc2nccc(Oc3ccc(NC(=S)NCCN(C(C)C)C(C)C)c(C)c3C)c2cc1OC` [Example 550, N-{4-[(6,7-Dimethoxy-4-quinolyl)oxy]-2,3-dimethylphenyl}-N′-(2-diisopropylaminoethyl)thiourea], the IC50 on c-kit stood at 536 nM; at PDGF-Ra, 77 nM.

Turning to `CCCCN(CCCC)CCCNC(=S)Nc1cc(C)c(Oc2ccnc3cc(OC)c(OC)cc23)cc1C` [Example 552, N-{4-[(6,7-Dimethoxy-4-quinolyl)oxy]-2,5-dimethylphenyl}-N′-(3-dibutylaminopropyl)thiourea], the inhibition at 1 µM at c-kit came to 28%. In addition, at PDGF-Ra, the IC50 is above 100 nM. On PDGF-Ra (setting [1]), the inhibition at 0.1 µM turned out to be 10%.

As for `COc1cc2nccc(Oc3cc(C)c(NC(=S)NCCCN4CCOCC4)cc3C)c2cc1OC` [Example 553, N-{4-[(6,7-Dimethoxy-4-quinolyl)oxy]-2,5-dimethylphenyl}-N′-[3-(1-morpholino)propyl]thiourea], the IC50 on c-kit was 320 nM; on PDGF-Ra, above 100 nM. Moreover, the inhibition at 0.1 µM at PDGF-Ra (setting [1]) was 40%.

Consider `COc1cc2nccc(Oc3cc(C)c(NC(=S)NCCN(C(C)C)C(C)C)cc3C)c2cc1OC` [Example 555, N-{4-[(6,7-Dimethoxy-4-quinolyl)oxy]-2,5-dimethylphenyl}-N′-(2-diisopropylaminoethyl)thiourea], for which the inhibition at 1 µM at c-kit was determined as 39%. The concentration for half-maximal inhibition (IC50) at PDGF-Ra is above 100 nM. For the same compound, the inhibition at 0.1 µM on PDGF-Ra (setting [1]) was 29%.

In the case of `COc1cc2nccc(Oc3cc(C)c(NC(=S)NCCCN4CCN(C)CC4)cc3C)c2cc1OC` [Example 556, N-{4-[(6,7-Dimethoxy-4-quinolyl)oxy]-2,5-dimethylphenyl}-N′-[3-(4-methylpiperazinyl)propyl]thiourea], on c-kit, the inhibition at 1 µM was 28%. The half-maximal inhibitory concentration (IC50) at PDGF-Ra is above 100 nM. At PDGF-Ra (setting [1]), the inhibition at 0.1 µM was determined as 13%.

Take `COc1cc2nccc(Oc3ccc(NC(=S)NCCCN4CCN(C)CC4)c(C)c3C)c2cc1OC` [Example 557, N-{4-[(6,7-Dimethoxy-4-quinolyl)oxy]-2,3-dimethylphenyl}-N′-[3-(4-methylpiperazinyl)propyl]thiourea]: the IC50 is 634 nM at c-kit and above 100 nM at PDGF-Ra. Besides, the “PDGF (E) inhibition (%) at 100 nM” value at PDGF-Ra (setting [1]) was 33%.

Take `COc1cc2ncnc(Oc3ccc(NC(=S)NCCN(C)C)cc3)c2cc1OC` [Example 559, N-{4-[(6,7-Dimethoxy-4-quinazolinyl)oxy]phenyl}-N′-(2-dimethylaminoethyl)thiourea]: the IC50 at c-kit was 711 nM; at PDGF-Ra it was 36 nM.

Turning to `COc1cc2nccc(Oc3ccc(NC(=O)NC4CCN(Cc5ccccc5)C4)cc3)c2cc1OC` (stereo not shown) [Example 560, N-(1-Benzyltetrahydro-1H-3-pyrrolyl)-N′-{4-[(6,7-dimethoxy-4-quinolyl)oxy]phenyl}urea], the values for the IC50 at c-kit and on PDGF-Ra were 107 nM and 12 nM, respectively.

As to `CCOC(=O)N1CCC(NC(=O)Nc2ccc(Oc3ccnc4cc(OC)c(OC)cc34)cc2)CC1` [Example 561, Ethyl 4-[({4-[(6,7-dimethoxy-4-quinolyl)oxy]anilino}carbonyl)amino]-1-piperidine-carboxylate], the IC50 is 54 nM at c-kit and below 10 nM on PDGF-Ra.

`COc1cc2nccc(Oc3ccc(NC(=O)NC4CC(C)(C)NC(C)(C)C4)cc3)c2cc1OC` [Example 562, N-{4-[(6,7-Dimethoxy-4-quinolyl)oxy]-phenyl}-N′-(2,2,6,6-tetramethyl-4-piperidyl)urea]: the inhibition at 1 µM on c-kit was 27%. Also, the half-maximal inhibitory concentration (IC50) on PDGF-Ra is 80 nM.

For the compound `COc1cc2ncnc(Oc3ccc(NC(=O)NC4CC(C)(C)NC(C)(C)C4)cc3)c2cc1OC` [Example 563, N-{4-[(6,7-Dimethoxy-4-quinazolinyl)oxy]phenyl}-N′-(2,2,6,6-tetramethyl-4-piperidyl)urea], the figures for the IC50 at c-kit and at PDGF-Ra were 406 nM and 54 nM, respectively.

As to `COc1cc2nccc(Oc3ccc(NC(=O)N[C@@H]4CCN(Cc5ccccc5)C4)cc3)c2cc1OC` [Example 564, N-[(3R)-1-Benzyltetrahydro-1H-3-pyrrolyl]-N′-{4-[(6,7-dimethoxy-4-quinolyl)oxy]phenyl}urea], the results for the IC50 at c-kit and at PDGF-Ra were 291 nM and 39 nM, respectively.

For `COc1cc2nccc(Oc3ccc(NC(=O)N[C@H]4CCN(Cc5ccccc5)C4)cc3)c2cc1OC` [Example 565, N-[(3S)-1-Benzyltetrahydro-1H-3-pyrrolyl]-N′-{4-[(6,7-dimethoxy-4-quinolyl)oxy]phenyl}urea], the half-maximal inhibitory concentration (IC50) on c-kit was 170 nM; at PDGF-Ra, 46 nM.

With `COc1cc2ncnc(Oc3ccc(NC(=O)N[C@@H]4CCN(Cc5ccccc5)C4)cc3)c2cc1OC` [Example 566, N-[(3R)-1-Benzyltetrahydro-1H-3-pyrrolyl]-N′-{4-[(6,7-dimethoxy-4-quinazolinyl)oxy]phenyl}urea], the figures for the IC50 on c-kit and at PDGF-Ra were 276 nM and 17 nM, respectively.

For the compound `COc1cc2nccc(Oc3ccc(NC(=O)NC4CCN(Cc5ccccc5C)CC4)cc3)c2cc1OC` [Example 568, N-{4-[(6,7-Dimethoxy-4-quinolyl)oxy]phenyl}-N′-[1-(2-methylbenzyl)-4-piperidyl]urea], the inhibition at 1 µM on c-kit was found to be 31%. Also, the IC50 at PDGF-Ra was above 100 nM. At PDGF-Ra (setting [1]), the inhibition at 0.1 µM was 28%.

For `COc1cc2ncnc(Oc3ccc(NC(=O)NC4CCN(Cc5ccccc5C)C4)cc3)c2cc1OC` (stereo not shown) [Example 569, N-{4-[(6,7-Dimethoxy-4-quinazolinyl)oxy]phenyl}-N′-[1-(2-methylbenzyl)tetrahydro-1H-3-pyrrolyl]urea], the IC50 amounted to 168 nM on c-kit and 12 nM on PDGF-Ra.

`COc1cc2ncnc(Oc3ccc(NC(=O)NC4CCN(Cc5ccccc5C)C4)c([N+](=O)[O-])c3)c2cc1OC` (stereo not shown) [Example 570, N-{4-[(6,7-Dimethoxy-4-quinazolinyl)oxy]-2-nitrophenyl}-N′-[1-(2-methylbenzyl)tetrahydro-1H-3-pyrrolyl]urea]: the IC50 on c-kit stood at 173 nM; on PDGF-Ra, 23 nM.

On to `COc1cc(Oc2ncnc3cc(OC)c(OC)cc23)ccc1NC(=O)NC1CCN(Cc2ccccc2C)C1` (stereo not shown) [Example 571, N-{4-[(6,7-Dimethoxy-4-quinazolinyl)oxy]-2-methoxyphenyl}-N′-[1-(2-methylbenzyl)tetrahydro-1H-3-pyrrolyl]urea], for which the IC50 on c-kit came out at 556 nM; at PDGF-Ra it was 32 nM.

`COc1cc2nccc(Oc3ccc(NC(=O)NC4CCN(Cc5ccccc5C)C4)c(C)c3C)c2cc1OC` (stereo not shown) [Example 572, N-{4-[(6,7-Dimethoxy-4-quinolyl)oxy]-2,3-dimethylphenyl}-N′-[1-(2-methylbenzyl)tetrahydro-1H-3-pyrrolyl]urea]: the IC50 at c-kit amounted to 262 nM; at PDGF-Ra, 64 nM.

`COc1cc2ncnc(Oc3ccc(NC(=O)NC4CCN(Cc5ccccc5C)C4)c(Cl)c3)c2cc1OC` (stereo not shown) [Example 573, N-{2-Chloro-4-[(6,7-dimethoxy-4-quinazolinyl)oxy]phenyl}-N′-[1-(2-methylbenzyl)tetrahydro-1H-3-pyrrolyl]urea]: the results for the concentration for half-maximal inhibition (IC50) at c-kit and on PDGF-Ra were 348 nM and 39 nM, respectively.

With `COc1cc2nccc(Oc3ccc(NC(=O)NC4CCN(Cc5ccccc5C)C4)cc3)c2cc1OC` (stereo not shown) [Example 574, N-{4-[(6,7-Dimethoxy-4-quinolyl)oxy]phenyl}-N′-[1-(2-methylbenzyl)tetrahydro-1H-3-pyrrolyl]urea], the figures for the IC50 on c-kit and on PDGF-Ra were 147 nM and 45 nM, respectively.
